Measured values: patent US20250025440A1, “COMPOSITIONS AND METHODS FOR MANAGEMENT OF HUMAN PAPILLOMA VIRUS-ASSOCIATED CANCERS” (LOMA LINDA UNIVERSITY, priority 2021, published 2025)

Legend:
[1] = biological target: T1, full-length HPV E6 binding to human Caspase 8 (Human papillomavirus type 16, UniProt P03126); settings: SAR analogs
T1 construct: made in house; host or cells: E. coli
Protocol: Three structurally diverse libraries (Prestwick library, Microsource Spectrum library and an in-house collection at Kansas University; see Table 1) were screened for the ability of compounds to inhibit the binding of full-length HPV E6 to human Caspase 8 using a previously optimized AlphaScreen™ protocol.
The compounds were diluted to a working concentration in DMSO and screened at a single-point final concentration of 10 μM with no replicates. Briefly, 75 nL of each compound was transferred and added to wells of the destination 384-well plate using the Echo dispenser to 4 μL of blocking solution. 4 μL of 800 nM GST-E6 and 4 μL of His6-Caspase 8 were added and pre-incubated at room temperature for 60 minutes. 8 μL of the donor and acceptor bead mixture (final concentration of 20 μg/ml) was then added. The plates were sealed and incubated for 4 hours at room temperature before the plates were read using the Envision™ Multi-Label plate reader (Perkin Elmer Inc.). […] A 10-point serial dilution of these compounds was done for dose-dependency reconfirmation. Dose response inhibition curves were constructed and IC50 calculated using GraphPad Prism using four parameter non-linear regression analysis.
The first counter-screen assay was based using the GST-His6 fusion peptide as the E6-binding partner instead of GST-E6-His6-Caspase 8. Hit candidate compounds from the primary screen were prepared using a 6-point serial dilution. Using an Echo dispenser, compounds were transferred to plates containing 4 μL of blocking buffer. 8 μL of 5 nM GST-His6 peptide substrate was then added. The mixture was pre-incubated at room temperature for 60 minutes. Glutathione donor and nickel chelate acceptor beads (final concentration 20 μg/mL) were added and incubated for another 60 minutes at room temperature. Dose-dependency of the compounds using GST-E6-His6-Caspase 8 was performed in parallel using the same protocol as in the primary screen. The signals were then read using the Envision™ plate reader.
(§1) Using the SciFinder and Zinc15 databases, several gambogic acid structural analogs were identified and selected. The 8 analogs were obtained as follow: gambogenic amide (Enzo Life Sciences), gambogenic acid (Selleckchem), morellic acid (Aobious), 30-hydroxy gambogic acid (Quality Phytochemicals, LLC), acetyl gambogic acid (Microsource), and gambogin, neogambogic acid and isomorellinol (MolPort Natural Products). Additional gambogic acid was purchased from Tocris. The interactions of the analogues with E6-caspase 8 was tested using AlphaScreen™ technology using the same protocol as with the primary screen, and were compared to the parent compound. The effect on cell viability was also similarly done in HPV^+ and HPV^− cell lines via the MTT assay (see below) and potency was determined using GraphPad IC50 curve fitting.

[2] = test system: SCC104 (HPV+ HNSCC cell line); test: MTT cell viability of gambogic acid analogs; assay type: cell-based; settings: SCC104, 24 hr
Protocol: Next, the analogs were evaluated for functional activity using the HPV^+ HNSCC cell line, SCC104, in the MTT assay as described previously to determine whether similar findings would be observed as in the in vitro AlphaScreen™ analysis. With one exception, the patterns were similar to the AlphaScreen™ data, but the differences were relatively more pronounced in the cell-based screen (FIG. 6B). […] Based on these findings, 30-hydroxygambogic acid (GA-OH) was selected as a candidate for more extensive functional studies.
as §1
All working concentrations were diluted in PBS to the desired concentration before use. To test the effect of gambogic acid and/or its derivatives on cell viability, all cell lines were seeded at 2×10^4 per well in 96-well plates and allowed to adhere overnight. Various concentrations of the analogues were added and the cells incubated at 37° C. for 24 hr. Viability was then measured using the MTT assay, performed as described previously. All experiments were repeated at least three times (three biological replicates, carried out on different days). Data presented are from a representative experiment. Cell viability and potency were assessed from % inhibition relative to the vehicle control, and IC50 dose curves were generated using GraphPad Prism.

SCC47 and SCC19 = test: Apoptosis analysis after irradiation (flow cytometry); assay type: cell-based
Protocol: Kinetics of G2-M arrest when SCC47 and SCC19 are irradiated with or without GA-OH. Cells were treated with radiation (4Gy) followed by GA-OH before cell cycle analysis was performed using […] flow cytometry assay after 24 hours. FIGS. 17A-17B are graphical representations of the kinetics of G2-M arrest when SCC47 and SCC19 are irradiated and followed by treatment with control or with GA-OH, as measured by flow cytometry assays after 24 hours. Cells are arrested to the same extent in the short term (first 12 hours) but over extended periods, SCC19 cells exit the G2-M stage quicker. In the HPV^+ but not HPV^− line, the addition of GA-OH to the radiation protocol delays the exit from the exit the G2-M stage at 24 hours as compared to radiation alone. Apoptosis analysis of SCC47 and SCC19 was performed after irradiation and followed by treatment with control or with GA-OH, as measured by flow cytometry assays after 24 hours. FIGS. 18A-18B are graphical representations of the apoptotic analysis of SCC47 and SCC19 after irradiation with or without GA-OH after 24 hours, as measured by flow cytometry assays. Radiation induces minimal apoptosis on its own.

SCC47 (HPV+) = test: Cell cycle analysis after irradiation (PI flow cytometry); assay type: cell-based; settings: SCC47, radiation (4Gy) followed by GA-OH, 24 hours
Protocol: Cells were treated with radiation (4Gy) followed by GA-OH before cell cycle analysis was performed using propidium iodide (PI) flow cytometry assay after 24 hours. FIGS. 15A-15B are graphical representations of the cell cycle analysis of SCC47 and SCC19 cell lines after irradiation and followed by treatment with control or with GA-OH, as measured by flow cytometry assays after 24 hours. In both cell lines, G2-M is the most affected stage of cell cycle and there is increase in G2-M arrested cells. The HPV^+ cell line—SCC47 has a higher proportion of cells that are still arrested in G2-M phase after 24 hours compared to the HPV^− cell line—SCC19. FIGS. 16A-16B are graphical representations of the fraction of G2-M arrested cells in SCC47 and SCC19 lines after irradiation and followed by treatment with control or with GA-OH, as measured by flow cytometry assays after 24 hours. […]
Kinetics of G2-M arrest when SCC47 and SCC19 are irradiated with or without GA-OH. […] FIGS. 17A-17B are graphical representations of the kinetics of G2-M arrest when SCC47 and SCC19 are irradiated and followed by treatment with control or with GA-OH, as measured by flow cytometry assays after 24 hours. […] Apoptosis analysis of SCC47 and SCC19 was performed after irradiation and followed by treatment with control or with GA-OH, as measured by flow cytometry assays after 24 hours. […]

T1 sequence (P03126 whole entry): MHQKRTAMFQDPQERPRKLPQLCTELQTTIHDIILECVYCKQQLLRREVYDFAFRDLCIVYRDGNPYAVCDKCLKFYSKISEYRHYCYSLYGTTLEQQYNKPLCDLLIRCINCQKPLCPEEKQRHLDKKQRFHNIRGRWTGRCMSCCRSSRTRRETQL

Question: Which results are given for 30-hydroxygambogic acid [GA-OH]?
Answer: inhibition of E6-caspase 8 binding relative to GA [1]: more effectively inhibited E6 binding to caspase 8 than any of the other analogs or the parent compound; potency in MTT assay [2]: highest potency of all analogs; apoptosis, agent alone (SCC47 and SCC19; 24 hours): appreciable apoptosis; apoptosis, combination with radiation (SCC47 and SCC19; SCC47 compared to SCC19, 24 hours): greater apoptosis and at a greater rate; G2-M arrest (SCC47 (HPV+)): increased arrest at 24 hours as compared to radiation alone
